Measured values reported in US12337003B2, “Pharmaceutical compositions for combination therapy” (Intercept Pharmaceuticals, Inc., priority 2015, dated 2025).

Assays:
[1] = tested on: patients with non-cirrhotic, non-alcoholic steatohepatitis; experiment: Subanalysis of clinical trial: concomitant statin use and LDL cholesterol; assay type: in vivo, humans; settings: patients on statins at baseline; up to Week 72
Protocol: A subanalysis of the data obtained in Example 9 was performed to assess the effect of statins on low density lipoprotein cholesterol (LDL-C) levels. The aims of these secondary analyses were to determine the effect of OCA versus placebo in the subgroup of patients with more severe NASH and to assess the effects of concomitant statin use on serum LDL cholesterol.
The following calculations were performed for OCA treated subjects in Groups A, B, and C. • Mean and median characteristics listed below will be evaluated at baseline and at Week 72. • Laboratory values: LDL-C, high density lipoprotein cholesterol (HDL-C), alanine and aspartate aminotransferase, gamma glutamyl transferase • Age • Gender: percentage male, percentage female • Percentage diabetic • Histology: steatosis, ballooning, inflammation, fibrosis • Mean and median percentage change at Week 72 from baseline of the above characteristics will be evaluated. Results

[2] = tested on: APOE*3Leiden.CETP transgenic mice on high fat diet; experiment: Diet induced NASH in APOE*3Leiden.CETP mice, hepatic inflammation score; assay type: in vivo
Protocol: This experiment was performed to evaluate the effects of OCA and fenofibrate, alone or in combination, on the development of diet induced NASH and liver fibrosis in APOE*3Leiden.CETP transgenic mice. Hepatic gene expression profiling and subsequent pathway analysis were performed to determine whether the combination regulates novel genes not regulated by either monotherapy treatment, and/or more strongly regulates genes also impacted by the monotherapy.
Male APOE*3Leiden.CETP transgenic mice (9-21 weeks old) were obtained and housed 2-5 mice per cage. The mice were fed a high fat diet containing 24% lard and 1% (w/w) cholesterol. The run in period was 15 weeks on the high fat diet. At week 16, mice were matched based on age, body weight, plasma cholesterol and triglycerides after 4 h fasting.
• Mice (n=15) were fed a high fat diet during the run in weeks 0 to 14. Group 2: HFC control group • Mice (n=15) were fed a high fat diet from weeks 0 to 24. Group 3: HFC+OCA • Mice (n=15) were fed a high fat diet supplemented with OCA at a dose of 10 mg/kg once daily from week 16 to 24. Group 4: HFC+low dose fenofibrate • Mice (n=15) were fed a high fat diet supplemented with fenofibrate at a dose of 10 mg/kg once daily from week 16 to 24. Group 5: HFC+high dose fenofibrate • Mice (n=15) were fed a high fat diet supplemented with fenofibrate at a dose of 40 mg/kg once daily from week 16 to 24. Group 6: HFC+OCA+low dose fenofibrate • Mice (n=15) were fed a high fat diet supplemented with OCA at a dose of 10 mg/kg once daily and fenofibrate at a dose of 10 mg/kg once daily from week 16 to 24. Group 7: HFC+OCA+high dose fenofibrate • Mice (n=15) were fed a high fat diet supplemented with OCA at a dose of 10 mg/kg once daily and fenofibrate at a dose of 40 mg/kg once daily from week 16 to 24. Group 8: Chow control group • Mice (n=8) were feed chow from week 0 to 24. Study Design
Mice were fed a high fat chow (HFC) diet for […]. After 15 weeks on the HFC diet, HFC mice were matched into 7 groups based on age, body weight, plasma cholesterol and triglycerides after 4 h fasting. Mice were treated with of OCA and fenofibrate, alone or in combination beginning at week 15 and sacrificed at week 25 in an unfasted state. One week before sacrifice, mice were labeled with D20, by i.p. injection of a bolus of D20 and subsequent addition of 4% D20 to the drinking water. Plasma (EDTA) was obtained by heart puncture and stored at −70° C. The liver was weighed and 4 pieces of liver were isolated: 1 piece (medial lobe) was fixed in 10% formalin (for NASH and fibrosis histology) and 3 pieces (sinister lobe) were snap-frozen in liquid N2 and stored individually at −70° C.
Inflammation is a key feature of NASH. Inflammation was categorized according to the procedure by Liang et al., PlosOne 2014 Dec. 9(12) and scored by quantitatively analyzing the number of inflammatory cells aggregates. In particular, the level of inflammation was evaluated by counting the number of inflammatory foci per field using a 100× magnification (view size of 3.1 mm2; average of five different fields).

[3] = tested on: intestinal tissue of two animal models of inflammatory bowel disease (DSS and trinitrobenzene sulfonic acid); settings: DSS and trinitrobenzene sulfonic acid models (Gadaleta 2011); cited from earlier work
[4] = tested on: kidney of a rat model of Type 1 diabetes; settings: rat model of Type 1 diabetes (Wang 2010); cited from earlier work

For CC[C@H]1[C@@H](O)[C@@H]2[C@H](CC[C@]3(C)[C@@H]([C@H](C)CCC(=O)O)CC[C@@H]23)[C@@]2(C)CC[C@@H](O)C[C@@H]12 [OCA, 3α,7α-dihydroxy-6α-ethyl-5β-cholan-24-oic acid], the “LDL cholesterol during OCA treatment” value [1] was “increased”, the “Inflammation (# of inflammatory cell foci)” value ([2]; OCA 10 mg/kg and/or low dose fenofibrate 10 mg/kg, in high fat diet) was 29.1 ± 22.7 and the “effect on number of inflammatory cell foci” value ([2]; after 10 weeks, OCA 10 mg/kg and/or fenofibrate 10 mg/kg, relative to vehicle control) was “neither OCA (10 mg/kg) nor fenofibrate (10 mg/kg) reduced”. For the same compound, the “inflammatory infiltrates in intestinal tissue” value [3] was “inhibition of inflammatory infiltrates” and the “inflammatory infiltrates in kidney” value [4] was “inhibition of inflammatory infiltrates”.
